pIC50: −log10 of the molar value. Active and inactive are the calls of the source. The calls are words filed in the database; no cut-off is given here.

Experiment [1] has as its target T1, Tyrosine-protein kinase Lyn (Homo sapiens, UniProt P07948). Nature of the experiment: Inhibition of N-terminal his6-tagged recombinant full-length human LYN expressed in baculovirus infected Sf21 cells.
Target sequence in this assay (P07948 whole entry): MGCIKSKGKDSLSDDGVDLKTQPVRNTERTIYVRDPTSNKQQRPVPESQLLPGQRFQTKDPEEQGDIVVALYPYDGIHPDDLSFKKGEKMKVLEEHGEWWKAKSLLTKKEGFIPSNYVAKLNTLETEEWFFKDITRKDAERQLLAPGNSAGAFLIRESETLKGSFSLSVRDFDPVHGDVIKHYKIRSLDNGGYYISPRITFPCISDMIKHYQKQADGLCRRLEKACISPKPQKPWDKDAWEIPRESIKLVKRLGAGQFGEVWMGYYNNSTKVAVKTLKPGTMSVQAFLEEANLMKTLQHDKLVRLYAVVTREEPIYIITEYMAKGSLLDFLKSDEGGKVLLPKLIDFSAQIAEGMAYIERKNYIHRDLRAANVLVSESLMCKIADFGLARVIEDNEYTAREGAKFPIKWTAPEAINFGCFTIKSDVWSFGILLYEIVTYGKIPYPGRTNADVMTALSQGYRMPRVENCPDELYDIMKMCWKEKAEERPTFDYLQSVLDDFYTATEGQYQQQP
The target in experiment [2] is D(3) dopamine receptor (Homo sapiens) (UniProt P35462). Description: Activity at dopamine receptor D3 (unknown origin) at <1 uM.
D(3) dopamine receptor (Homo sapiens), sequence (P35462 whole entry): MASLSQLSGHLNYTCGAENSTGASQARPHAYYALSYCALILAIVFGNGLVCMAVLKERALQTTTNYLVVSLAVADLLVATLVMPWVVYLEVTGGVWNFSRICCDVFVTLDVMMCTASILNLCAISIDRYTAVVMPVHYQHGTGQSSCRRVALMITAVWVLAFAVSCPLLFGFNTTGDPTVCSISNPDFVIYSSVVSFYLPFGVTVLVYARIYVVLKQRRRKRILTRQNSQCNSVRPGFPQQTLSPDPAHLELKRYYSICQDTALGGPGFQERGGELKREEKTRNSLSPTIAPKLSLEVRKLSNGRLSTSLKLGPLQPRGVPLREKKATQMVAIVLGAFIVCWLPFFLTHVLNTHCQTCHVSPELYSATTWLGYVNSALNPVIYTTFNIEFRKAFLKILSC
For experiment [3], the target named is Tyrosine-protein kinase Yes (Homo sapiens, UniProt P07947). The settings on record: 100 nM.
Tyrosine-protein kinase Yes, sequence (P07947 2-543 limits assumed): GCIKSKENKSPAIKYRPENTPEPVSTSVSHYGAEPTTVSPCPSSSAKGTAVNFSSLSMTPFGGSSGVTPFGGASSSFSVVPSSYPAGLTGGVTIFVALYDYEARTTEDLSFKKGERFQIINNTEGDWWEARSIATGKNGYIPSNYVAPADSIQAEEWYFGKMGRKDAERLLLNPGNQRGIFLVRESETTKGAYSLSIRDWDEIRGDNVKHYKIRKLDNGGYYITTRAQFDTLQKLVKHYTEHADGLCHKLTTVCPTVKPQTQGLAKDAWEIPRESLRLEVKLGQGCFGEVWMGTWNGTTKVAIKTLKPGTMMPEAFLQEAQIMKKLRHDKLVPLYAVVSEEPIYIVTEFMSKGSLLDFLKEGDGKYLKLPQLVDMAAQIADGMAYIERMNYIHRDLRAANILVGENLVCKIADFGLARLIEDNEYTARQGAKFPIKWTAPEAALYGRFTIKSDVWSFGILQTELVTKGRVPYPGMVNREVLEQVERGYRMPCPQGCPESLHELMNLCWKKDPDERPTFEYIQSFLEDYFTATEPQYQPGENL
Description: Inhibition of N-terminal 6His-tagged full length recombinant human YES expressed in baculovirus expression system at 100 nM
Experiment [4] has as its target T1, Tyrosine-protein kinase Lyn. Description: Inhibition of N-terminal his6-tagged recombinant full-length human LYN expressed in baculovirus infected Sf21 cells at 100 nM.
Target sequence in this assay (P07948 2-512 limits assumed): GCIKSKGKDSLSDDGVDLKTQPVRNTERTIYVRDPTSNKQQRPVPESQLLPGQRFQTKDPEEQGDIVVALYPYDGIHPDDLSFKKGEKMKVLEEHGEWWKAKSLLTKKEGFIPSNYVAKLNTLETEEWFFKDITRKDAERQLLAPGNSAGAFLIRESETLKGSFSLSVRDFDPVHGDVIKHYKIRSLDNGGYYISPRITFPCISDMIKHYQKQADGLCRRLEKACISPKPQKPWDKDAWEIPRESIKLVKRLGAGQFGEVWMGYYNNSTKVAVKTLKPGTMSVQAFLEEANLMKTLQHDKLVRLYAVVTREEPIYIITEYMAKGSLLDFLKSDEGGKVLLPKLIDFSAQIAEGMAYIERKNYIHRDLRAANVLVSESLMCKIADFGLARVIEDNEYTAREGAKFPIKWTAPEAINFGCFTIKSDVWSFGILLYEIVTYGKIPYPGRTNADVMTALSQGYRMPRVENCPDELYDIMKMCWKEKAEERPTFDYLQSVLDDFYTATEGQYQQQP
The target in experiment [5] is Serine/threonine-protein kinase PAK 2 (Homo sapiens, UniProt Q13177).
Serine/threonine-protein kinase PAK 2, sequence (Q13177 whole entry): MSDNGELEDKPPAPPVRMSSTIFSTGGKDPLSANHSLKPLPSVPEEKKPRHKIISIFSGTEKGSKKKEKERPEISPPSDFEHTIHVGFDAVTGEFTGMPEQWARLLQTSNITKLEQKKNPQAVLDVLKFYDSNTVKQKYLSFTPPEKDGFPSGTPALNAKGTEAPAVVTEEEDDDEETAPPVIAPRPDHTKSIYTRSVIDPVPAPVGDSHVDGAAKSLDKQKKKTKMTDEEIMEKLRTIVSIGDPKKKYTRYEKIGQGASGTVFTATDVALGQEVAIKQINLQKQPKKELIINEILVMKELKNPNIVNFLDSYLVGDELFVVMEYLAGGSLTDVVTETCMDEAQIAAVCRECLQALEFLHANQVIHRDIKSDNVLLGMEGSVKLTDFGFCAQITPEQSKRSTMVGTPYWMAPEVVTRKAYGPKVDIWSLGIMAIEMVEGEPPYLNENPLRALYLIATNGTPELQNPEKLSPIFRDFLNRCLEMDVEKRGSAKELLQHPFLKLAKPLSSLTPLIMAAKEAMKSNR
Description: Inhibition of N-terminal 6His-tagged recombinant human PAK2 (3-end residues) expressed in Escherichia coli
The target of experiment [6] is Sodium-dependent dopamine transporter (Homo sapiens) (UniProt Q01959). Nature of the experiment: Activity at dopamine transporter (unknown origin) at <1 uM.
Sodium-dependent dopamine transporter (Homo sapiens), sequence (Q01959 whole entry): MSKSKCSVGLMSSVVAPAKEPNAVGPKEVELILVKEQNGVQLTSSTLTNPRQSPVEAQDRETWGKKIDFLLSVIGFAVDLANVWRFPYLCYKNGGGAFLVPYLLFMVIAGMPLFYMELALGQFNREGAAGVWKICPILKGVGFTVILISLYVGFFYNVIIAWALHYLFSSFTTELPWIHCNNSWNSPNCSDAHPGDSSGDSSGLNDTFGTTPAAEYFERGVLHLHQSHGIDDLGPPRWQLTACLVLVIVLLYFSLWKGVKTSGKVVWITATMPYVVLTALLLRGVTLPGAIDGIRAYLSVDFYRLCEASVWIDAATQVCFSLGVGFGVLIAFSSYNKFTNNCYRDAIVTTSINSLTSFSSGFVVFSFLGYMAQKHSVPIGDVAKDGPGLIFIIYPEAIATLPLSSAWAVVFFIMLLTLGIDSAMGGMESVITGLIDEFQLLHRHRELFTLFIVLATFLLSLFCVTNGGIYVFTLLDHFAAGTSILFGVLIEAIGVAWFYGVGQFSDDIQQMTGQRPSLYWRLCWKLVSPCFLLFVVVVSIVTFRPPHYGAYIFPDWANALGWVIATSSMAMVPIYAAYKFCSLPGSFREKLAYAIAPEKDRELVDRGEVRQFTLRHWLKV
Experiment [7] deals with T2, Alpha-2C adrenergic receptor (Homo sapiens) (UniProt P18825).
T2 sequence (whole entry): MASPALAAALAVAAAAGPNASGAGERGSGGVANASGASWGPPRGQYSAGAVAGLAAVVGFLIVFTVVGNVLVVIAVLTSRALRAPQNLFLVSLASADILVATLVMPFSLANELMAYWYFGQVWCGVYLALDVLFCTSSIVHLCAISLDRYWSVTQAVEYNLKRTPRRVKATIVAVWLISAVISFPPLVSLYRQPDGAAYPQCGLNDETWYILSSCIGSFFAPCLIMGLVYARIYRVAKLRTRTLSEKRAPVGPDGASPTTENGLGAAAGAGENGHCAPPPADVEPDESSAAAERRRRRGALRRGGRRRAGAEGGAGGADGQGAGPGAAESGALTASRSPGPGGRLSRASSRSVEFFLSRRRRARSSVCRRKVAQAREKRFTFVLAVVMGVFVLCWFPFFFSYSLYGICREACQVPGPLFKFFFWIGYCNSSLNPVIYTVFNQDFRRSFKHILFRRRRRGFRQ
Nature of the experiment: Activity at alpha-2C adrenergic receptor (unknown origin) at <1 uM.

The target in experiment [8] is Proto-oncogene tyrosine-protein kinase Src (Homo sapiens, UniProt P12931). Description: Inhibition of N-terminal His6-tagged recombinant human Src (1 to 530 residues) expressed in baculovirus infected sf21 cells.
Proto-oncogene tyrosine-protein kinase Src, sequence (P12931 2-536 limits assumed): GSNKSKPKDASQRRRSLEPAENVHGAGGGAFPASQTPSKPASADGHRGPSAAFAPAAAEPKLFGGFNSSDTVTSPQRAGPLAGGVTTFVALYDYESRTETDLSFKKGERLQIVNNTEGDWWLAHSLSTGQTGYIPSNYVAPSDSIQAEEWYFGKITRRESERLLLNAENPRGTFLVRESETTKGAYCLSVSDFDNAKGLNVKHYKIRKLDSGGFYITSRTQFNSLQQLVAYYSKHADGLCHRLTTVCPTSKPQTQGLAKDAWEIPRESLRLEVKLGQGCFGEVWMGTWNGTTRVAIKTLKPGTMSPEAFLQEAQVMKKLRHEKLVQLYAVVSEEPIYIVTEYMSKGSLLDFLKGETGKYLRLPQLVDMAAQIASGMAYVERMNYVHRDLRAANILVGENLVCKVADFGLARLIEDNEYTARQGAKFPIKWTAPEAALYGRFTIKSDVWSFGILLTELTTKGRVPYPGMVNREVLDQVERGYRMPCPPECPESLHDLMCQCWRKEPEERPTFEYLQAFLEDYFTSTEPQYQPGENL
In experiment [9] the target is T3, Muscarinic acetylcholine receptor M1 (Homo sapiens) (UniProt P11229).
T3 sequence (whole entry): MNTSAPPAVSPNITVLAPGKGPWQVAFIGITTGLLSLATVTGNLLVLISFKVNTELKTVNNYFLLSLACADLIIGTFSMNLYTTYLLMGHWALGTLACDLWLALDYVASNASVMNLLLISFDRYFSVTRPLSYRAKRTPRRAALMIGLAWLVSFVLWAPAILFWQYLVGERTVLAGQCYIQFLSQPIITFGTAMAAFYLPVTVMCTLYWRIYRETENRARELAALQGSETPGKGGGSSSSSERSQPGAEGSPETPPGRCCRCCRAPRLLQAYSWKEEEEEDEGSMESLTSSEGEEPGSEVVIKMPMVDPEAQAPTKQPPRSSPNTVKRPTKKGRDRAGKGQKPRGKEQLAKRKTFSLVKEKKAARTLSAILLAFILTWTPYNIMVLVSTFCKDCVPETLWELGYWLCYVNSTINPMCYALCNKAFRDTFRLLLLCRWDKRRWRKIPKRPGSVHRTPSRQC
Description: Activity at muscarinic acetylcholine receptor M1 (unknown origin) at <1 uM.

The species entered for the next experiment is Homo sapiens. Description: Activity at CaV-L (unknown origin) at <1 uM.

A word on the pIC50: it is the negative decadic logarithm of the IC50, by convention in mol/L. Usually inhibition stands for the drop in the measured response relative to a control, in per cent. Regarding `CCS(=O)(=O)c1cc(Nc2ncc(F)c(N(Cc3ccccc3C#N)c3cc(CO)ccc3C)n2)ccc1N1CCN(C)CC1`, the negative-log IC50 (pIC50) in experiment [1] is 7.51; in [5], 8.22; in experiment [8] it was 7.03. Also, the result (in experiment [2]; in [6]; in experiment [7]; in experiment [9]; in the experiment filed under Homo sapiens) was Active. Also, the inhibition in [3] was found to be 95%; in [4], 91%.
